Assay results taken from publication PMC11233931, “Remodeling tumor‐associated macrophage for anti‐cancer effects by rational design of irreversible inhibition of mitogen‐activated protein kinase‐activated protein kinase 2” (MedComm, 2024).

Experiments:
[1] = Cytotoxicity assays, summary over all cell lines; type: cell-based; conditions: range over three normal and six tumor cell lines
Description: MK2, as a pivotal regulator of the well‐acknowledged p38 inflammation signaling pathway, is increasingly recognized for its critical role in the initiation and progression of cancer. Through an analysis of the clinical data from the TCGA database, we found the significant impact of MK2 on cancer. […] Moreover, macrophages are abundant in cancer, and such abundance correlates with poor prognosis in most malignancie.[17], [18], [19], [20] […] Additionally, the knockdown of MK2 using specific siRNA in macrophages also led to the downregulation of M2 markers. […] Moreover, compound 11’s effect on macrophages extended to inhibition of typical proinflammatory cytokines and crucial factors in inflammation‐driven tumorigenesis. […] These findings bolster the rationale for pursuing the development and application of MK2 inhibitors in the treatment of inflammation‐driven or macrophage‐rich cancers.
(§1) Cells was plated into 96-well plates and incubated overnight prior to introduction of varying concentrations of compounds or control solvent. Following a 72-hour exposure period, cell viability was determined using a Cell Counting Kit-8 assay (Life-iLab, China). Dose-response curves were fitted using a four-parameter method facilitated by SoftMax Pro, which was subsequently used for the computation of IC50 values.

[2] = Cell viability assay (CCK-8), Raw264.7; type: cell-based; conditions: Raw264.7 cells (mononuclear macrophage), Raw264.7, mouse mononuclear macrophage, read-out: IC50 (μM) mean ± SD, cytotoxicity
Procedure: (§2) In cellular experiments, cells are seeded into either 6-well or 96-well plates and incubated overnight, proceeding with treatments as described in the figure legends or methods section. The cell inoculation numbers are outlined as follows: For assays measuring cell viability, between 3,000 to 5,000 cells are seeded per well in 96-well plates. For other cellular assays, the seeding density ranges from 5×10^5 to 1×10^6 cells per well in 6-well plates.
as §1

[3] = target: T1, TTK (Homo sapiens, UniProt P33981); assay: Eurofins kinase selectivity profile, TTK; type: biochemical
T1 construct: purchased Eurofins (Celle Lévescault)
T1 sequence (P33981 1-857): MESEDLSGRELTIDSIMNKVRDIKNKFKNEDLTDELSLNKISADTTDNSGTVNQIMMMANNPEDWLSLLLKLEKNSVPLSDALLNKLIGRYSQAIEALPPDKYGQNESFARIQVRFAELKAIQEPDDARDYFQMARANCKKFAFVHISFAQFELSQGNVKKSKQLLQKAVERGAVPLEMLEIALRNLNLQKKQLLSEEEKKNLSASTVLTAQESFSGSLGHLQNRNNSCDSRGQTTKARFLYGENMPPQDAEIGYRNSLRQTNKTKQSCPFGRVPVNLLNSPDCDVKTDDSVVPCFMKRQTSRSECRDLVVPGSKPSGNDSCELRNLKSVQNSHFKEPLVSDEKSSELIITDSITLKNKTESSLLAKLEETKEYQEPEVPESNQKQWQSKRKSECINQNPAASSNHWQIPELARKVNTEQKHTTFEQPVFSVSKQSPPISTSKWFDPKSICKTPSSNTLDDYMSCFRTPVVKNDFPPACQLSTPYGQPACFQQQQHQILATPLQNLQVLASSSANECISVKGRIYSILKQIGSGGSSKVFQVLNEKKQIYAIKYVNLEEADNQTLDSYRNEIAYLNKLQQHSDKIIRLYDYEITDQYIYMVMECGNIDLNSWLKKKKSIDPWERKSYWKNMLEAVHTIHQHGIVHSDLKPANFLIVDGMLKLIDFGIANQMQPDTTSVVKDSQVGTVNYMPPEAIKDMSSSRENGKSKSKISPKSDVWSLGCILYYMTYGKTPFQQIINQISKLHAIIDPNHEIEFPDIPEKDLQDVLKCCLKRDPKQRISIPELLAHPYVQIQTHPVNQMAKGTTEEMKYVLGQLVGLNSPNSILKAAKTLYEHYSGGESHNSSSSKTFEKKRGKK
Procedure: Subsequently, to ascertain whether the high potency of compound 11 was specific for MK2, an additional 380 human recombinant protein kinases were screened.
To assess the impact of various compounds on MK2 kinase activity, we utilized the ADP‐Glo Assay Kit (Promega) following the manufacturer's instructions. Luminescence measurements were taken using a SpectraMax Paradigm reader. The inhibition percentage was calculated using the following formula: ((specific signalDMSO control − specific signal inhibitor)/(specific signalDMSO control)) × 100%. The IC50 values were determined employing dose–response curve fitting via Prism (Graph Pad). Additionally, Eurofins company (Celle Lévescault) conducted the analysis on compound 11’s inhibitory activity against 380 other human recombinant kinases at various concentrations.

[4] = tested on: VEGF mRNA in THP-1 cells; assay: RT-PCR of VEGF in IL-4/IL-13 stimulated THP-1 cells; type: cell-based, human; conditions: IL-4/IL-13, 12 h
Description: Following this line of investigation, we employed siRNA for the transient knockdown of MK2 in THP‐1 monocyte‐ differentiated macrophages. […] M2 macrophages play a pivotal role in promoting tumor angiogenesis through the secretion of critical factors like VEGF, which facilitate tumor neovascularization.[17] […] These findings further validate the significance of MK2 in the M2 polarization of macrophages and illustrate how compound 11, by targeting MK2, suppresses the pro‐tumorigenic phenotype of macrophages.
Total RNA was extracted from cultured cells using the EZ‐press RNA Purification Kit (EZBioscience). Complementary DNA was synthesized using the ABScript III RT Master Mix for qPCR with gDNA remover (ABclonal Technology) and was quantified with primers listed in Table S5. The relative mRNA expression levels were quantified through qPCR using the SYBR green gene expression assay (ABclonal Technology).
Figure S3 Inhibition of pro-tumorigenic M2-like polarization in macrophages by compound 11. (A) Illustrates the treatment effects on various macrophage cells using Western blot analysis post IL-4/IL-13 exposure (30 minutes or the specified time period). (B) Examines CD206 expression in RAW264.7 cells via flow cytometry post 48hours treatment of compound 11 and IL-4/IL-13. […] IL-4/IL-13 (20 ng/mL) served as the stimulation control, while untreated cells were the baseline control. […]

[5] = Cell viability assay (CCK-8), MIA Paca-2; type: cell-based; conditions: MIA Paca-2 cells (pancreatic carcinoma), MIA Paca-2, human pancreatic carcinoma, read-out: IC50 (μM) mean ± SD, cytotoxicity
Procedure: as §2, §1

[6] = Cell viability assay (CCK-8), HEK293; type: cell-based; conditions: HEK293 cells (embryo kidney), HEK293, human embryo kidney, read-out: IC50 (μM) mean ± SD, cytotoxicity
Procedure: as §2, §1

[7] = Cell viability assay (CCK-8), HCC44; type: cell-based; conditions: HCC44 cells (non-small cell lung carcinoma), HCC44, human non-small cell lung carcinoma, read-out: IC50 (μM) mean ± SD, cytotoxicity
Procedure: as §2, §1

`C=CC(=O)Nc1cc(-c2cc(-c3cc4c([nH]3)CCNC4=O)ccn2)ccc1OC(F)(F)F` [compound 11] gave an IC50 at 72 h [1] of 30 to 50 µM, an IC50 at 72 h [2] of 31.7 ± 2.9 µM and an IC50 [3] of over 1000 nM. The inhibition at 0.01 µM ([3]; TTK(h), 10 nM, read-out: Inhibition rate) was -1%, the inhibition at 0.1 µM ([3]; TTK(h), 100 nM, read-out: Inhibition rate) was 7% and the inhibition at 1 µM ([3]; TTK(h), 1000 nM, read-out: Inhibition rate) was 43%. The “effect on relative mRNA level of VEGF” value [4] was “inhibited”, the IC50 at 72 h [5] was 47.8 ± 2.8 µM and the IC50 at 72 h [6] was 29.9 ± 7.2 µM. It also gave an IC50 at 72 h [7] of 32.3 ± 3.3 µM.
